Experimental data reported in patent US20020152499A1, “Gene encoding a protein involved in the signal transduction cascade leading to systemic acquired resistance in plants” (priority 1996, published 2002).

Experiments:
NIM1 gene = assay: RNA gel blot of NIM1 (gene region 2) mRNA after chemical treatment; conditions: wild-type Ws plants (FIG. 7)
Source text: To ascertain which gene region contained the NIM1 gene, gel blots containing RNA isolated from leaf tissue of Ws-0 and the different nim1 mutants following either water or chemical treatment were probed with DNA derived from each of the four gene regions. In these experiments, care was taken to label probes to high specific activity and autoradiographs were exposed for more than 1 week.
Identical Northern blots were made from RNA samples isolated from water-, SA-, BTH- and INA-treated Ws and nim1 lines as previously described in Delaney, et al. (1995). These blots were hybridized with PCR products generated from the four gene regions identified in the 9.9 kb NIM1 gene region (SEQ ID NO:1).
The same RNA samples produced in the induction studies (FIG. 3) were also probed with the NIM1 gene using a full4ength cDNA clone as a probe.

PR-1, PR-2 and PR-5 = assay: Northern analysis of SAR gene expression after chemical treatment
Procedure: Plants were then treated with H2O, 5 mM SA, 300 FM BTH, or 300 FM INA. Chemicals were applied as a fine mist to completely cover the seedlings using a chromister. Water control plants were returned to the growing phytotron while the chemically treated plants were held in a separate but identical phytotron. At 3 days post-chemical application, water and chemically treated plants were inoculated with the compatible Emwa isolate. Noco inoculation was conducted on water treated plants only. Following inoculation, plants were covered with a clear plastic dome to maintain high humidity required for successful P. parasitica infection and placed in a growing chamber with 19° C. day/17° C. night temperatures and 8 h light/16 h dark cycles. RNA was extracted from plants 3 days after either water or chemical treatment, or 14 days after inoculation with the compatible P. parasitica Emwa isolate. The RNA was size-fractionated by agarose gel electrophoresis and transferred to GeneScreenPlus membranes (DuPont).
In FIG. 1, replicate blots were hybridized to Arabidopsis gene probes PR-1, PR-2 and PR-5 as described in Uknes et al. (1992).

[1] = system: Peronospora parasitica isolate Emwa; assay: Percent of plants showing P. parasitica Emwa surface conidia after chemical pretreatment; conditions: for Percent Infection - Emwa: P. parasitica inoculated 3 days after chemical treatment
Procedure: Mutant plants were treated with SA, INA, and BTH and then assayed for resistance to Peronospora parasitica.P. parasitica isolate ‘Emwa’ is a Pp. isolate that is compatible in the Ws ecotype.
(§1) Wild-type seeds and seeds for each of the nim1 alleles (nim1-1,-2,-3,-4,-5,-6) were sown onto MetroMix 300 growing media, covered with a transparent plastic dome, and placed at 4° C. in the dark for 3 days. After 3 days of 4° C. treatment, the plants were moved to a phytotron for 2 weeks. By approximately 2 weeks post-planting, germinated seedlings had produced 4 true leaves. Plants were then treated with H2O, 5 mM SA, 300 μM BTH, or 300 μM INA. Chemicals were applied as a fine mist to completely cover the seedlings using a chromnister. Water control plants were returned to the growing phytotron while the chemically treated plants were held in a separate but identical phytotron. At 3 days post-chemical application, water and chemically treated plants were inoculated with the compatible ‘Emwa’ isolate. ‘Noco’ inoculation was conducted on water treated plants only. Following inoculation, plants were covered with a clear plastic dome to maintain high humidity required for successful P. parasitica infection and placed in a growing chamber with 19° C. day/17° C. night temperatures and 8 h light/16 h dark cycles.
To determine the relative strength of the different nim1 alleles, each mutant was microscopically analyzed at various timepoints after inoculation for the growth of P. parasitica under normal growth conditions and following pretreatment with either SA, INA, or BTH. Under magnification, sporulation of the fungus could be observed at very early stages of disease development. The percentage of plants/pot showing sporulation at 5d, 6d, 7d, 1 id and 14d after inoculation was determined and the density of sporulation was also recorded.
P. parasitica was inoculated onto the plants three days after water or chemical treatment.

[2] = system: Peronospora parasitica isolate Emwa; assay: Infection severity rating after inoculation with Peronospora parasitica (Emwa) following chemical pretreatment
Procedure: as §1
WsWT indicates the Ws wild type parent line in which the nim1 alleles were found. The various nim1 alleles are indicated in the table and the NahG plant is indicated also.
NahG plants therefore serve as a kind of universal susceptibility control.

## CSC(=O)c1cccc2nnsc12 [BTH]
NIM1 gene
  NIM1 (gene region 2) mRNA: induced
PR-1, PR-2 and PR-5; nim1 plants, RNA gel blots FIGS. 1-3
  SAR and SAR gene expression (PR-1, PR-2, PR-5): induce neither SAR nor SAR gene expression
PR-1, PR-2 and PR-5; wild-type plants, RNA 3 days after chemical treatment (FIG. 3)
  PR-1 mRNA accumulation: accumulates to high levels
[1]; Ws WT plants, Day 0
  Percent Infection - Emwa: 0%
[1]; Ws WT plants, Day 5
  Percent Infection - Emwa: 0%
[1]; Ws WT plants, Day 6
  Percent Infection - Emwa: 0%
[1]; Ws WT plants, Day 7
  Percent Infection - Emwa: 0%
[1]; Ws WT plants, Day 11
  Percent Infection - Emwa: 0%
[1]; nim1-1 plants, Day 0
  Percent Infection - Emwa: 0%
[1]; nim1-1 plants, Day 5
  Percent Infection - Emwa: 1%
[1]; nim1-1 plants, Day 6
  Percent Infection - Emwa: 5%
[1]; nim1-1 plants, Day 7
  Percent Infection - Emwa: 30%
[1]; nim1-1 plants, Day 11
  Percent Infection - Emwa: 100%
[1]; nim1-2 plants, Day 0
  Percent Infection - Emwa: 0%
[1]; nim1-2 plants, Day 5
  Percent Infection - Emwa: 0%
[1]; nim1-2 plants, Day 6
  Percent Infection - Emwa: 25%
[1]; nim1-2 plants, Day 7
  Percent Infection - Emwa: 90%
[1]; nim1-2 plants, Day 11
  Percent Infection - Emwa: 100%
[1]; nim1-3 plants, Day 0
  Percent Infection - Emwa: 0%
[1]; nim1-3 plants, Day 5
  Percent Infection - Emwa: 15%
[1]; nim1-3 plants, Day 6
  Percent Infection - Emwa: 70%
[1]; nim1-3 plants, Day 7
  Percent Infection - Emwa: 100%
[1]; nim1-3 plants, Day 11
  Percent Infection - Emwa: 100%
[1]; nim1-4 plants, Day 0
  Percent Infection - Emwa: 0%
[1]; nim1-4 plants, Day 5
  Percent Infection - Emwa: 80%
[1]; nim1-4 plants, Day 6
  Percent Infection - Emwa: 100%
[1]; nim1-4 plants, Day 7
  Percent Infection - Emwa: 100%
[1]; nim1-4 plants, Day 11
  Percent Infection - Emwa: 100%
[1]; nim1-5 plants, Day 0
  Percent Infection - Emwa: 0%
[1]; nim1-5 plants, Day 5
  Percent Infection - Emwa: 0%
[1]; nim1-5 plants, Day 6
  Percent Infection - Emwa: 1%
[1]; nim1-5 plants, Day 7
  Percent Infection - Emwa: 1%
[1]; nim1-5 plants, Day 11
  Percent Infection - Emwa: 10%
[1]; nim1-6 plants, Day 0
  Percent Infection - Emwa: 0%
[1]; nim1-6 plants, Day 5
  Percent Infection - Emwa: 1%
[1]; nim1-6 plants, Day 6
  Percent Infection - Emwa: 90%
[1]; nim1-6 plants, Day 7
  Percent Infection - Emwa: 100%
[1]; nim1-6 plants, Day 11
  Percent Infection - Emwa: 100%
[1]; nim1 plants
  activity in nim1 plants: inactive
[2]; NahG plants
  response of plants to the inducer (disease resistance): very good response
[2]; NahG plants, Day 7 after inoculation
  Infection Severity - Emwa: 0
[2]; NahG plants, Day 11 after inoculation
  Infection Severity - Emwa: 0
[2]; Ws Wt plants, Day 7 after inoculation
  Infection Severity - Emwa: 0
[2]; Ws Wt plants, Day 11 after inoculation
  Infection Severity - Emwa: 0
[2]; Ws plants
  induced resistance to Emwa: very good resistance
[2]; nim1-1 plants, Day 7 after inoculation
  Infection Severity - Emwa: 2.5
[2]; nim1-1 plants, Day 11 after inoculation
  Infection Severity - Emwa: 4
[2]; nim1-2 plants, Day 7 after inoculation
  Infection Severity - Emwa: 3.5
[2]; nim1-2 plants, Day 11 after inoculation
  Infection Severity - Emwa: 4
[2]; nim1-3 plants, Day 7 after inoculation
  Infection Severity - Emwa: 3
[2]; nim1-3 plants, Day 11 after inoculation
  Infection Severity - Emwa: 3.5
[2]; nim1-4 plants, Day 7 after inoculation
  Infection Severity - Emwa: 4
[2]; nim1-4 plants, Day 11 after inoculation
  Infection Severity - Emwa: 5
[2]; nim1-5 plants, Day 7 after inoculation
  Infection Severity - Emwa: 1.5
[2]; nim1-5 plants, Day 11 after inoculation
  Infection Severity - Emwa: 2
[2]; nim1-6 plants, Day 7 after inoculation
  Infection Severity - Emwa: 3
[2]; nim1-6 plants, Day 11 after inoculation
  Infection Severity - Emwa: 4
